Laboratory results: PubChem BioAssay (NCI)
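Compound exposure: 48 hours, 5 concentrations, 96-well plates. At the GI50, growth is halved. TGI: total growth inhibition.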

Legend:
Test in all cases: NCI-60 cell line screen, 48 h
786-0 renal = tested on: 786-0 renal
A498 renal = tested on: A498 renal
A549 NSCLC = tested on: A549 NSCLC
ACHN renal = tested on: ACHN renal
BT-549 breast = tested on: BT-549 breast
CAKI-1 renal = tested on: CAKI-1 renal
COLO 205 colon = tested on: COLO 205 colon
DU-145 prostate = tested on: DU-145 prostate
EKVX NSCLC = tested on: EKVX NSCLC
HCC-2998 colon = tested on: HCC-2998 colon
HCT-116 colon = tested on: HCT-116 colon
HCT-15 colon = tested on: HCT-15 colon
HOP-62 NSCLC = tested on: HOP-62 NSCLC
HS 578T breast = tested on: HS 578T breast
HT29 colon = tested on: HT29 colon
IGROV1 ovarian = tested on: IGROV1 ovarian
K-562 leukemia = tested on: K-562 leukemia
KM12 colon = tested on: KM12 colon
LOX IMVI melanoma = tested on: LOX IMVI melanoma
M14 melanoma = tested on: M14 melanoma
MALME-3M melanoma = tested on: MALME-3M melanoma
MCF7 breast = tested on: MCF7 breast
MDA-MB-435 = tested on: MDA-MB-435
MOLT-4 leukemia = tested on: MOLT-4 leukemia
NCI-H23 lung = tested on: NCI-H23 lung
NCI-H460 lung = tested on: NCI-H460 lung
NCI-H522 lung = tested on: NCI-H522 lung
NCI/ADR-RES ovarian = tested on: NCI/ADR-RES ovarian
OVCAR-4 ovarian = tested on: OVCAR-4 ovarian
OVCAR-5 ovarian = tested on: OVCAR-5 ovarian
OVCAR-8 ovarian = tested on: OVCAR-8 ovarian
RXF 393 renal = tested on: RXF 393 renal
SF-268 CNS = tested on: SF-268 CNS
SF-295 CNS = tested on: SF-295 CNS
SF-539 CNS = tested on: SF-539 CNS
SK-MEL-2 melanoma = tested on: SK-MEL-2 melanoma
SK-MEL-28 melanoma = tested on: SK-MEL-28 melanoma
SK-MEL-5 melanoma = tested on: SK-MEL-5 melanoma
SK-OV-3 ovarian = tested on: SK-OV-3 ovarian
SNB-19 CNS = tested on: SNB-19 CNS
SNB-75 CNS = tested on: SNB-75 CNS
SR leukemia = tested on: SR leukemia
SW-620 colon = tested on: SW-620 colon
TK-10 renal = tested on: TK-10 renal
U251 CNS = tested on: U251 CNS
UACC-257 melanoma = tested on: UACC-257 melanoma
UACC-62 melanoma = tested on: UACC-62 melanoma
UO-31 renal = tested on: UO-31 renal

For `CCN(CC)c1ccc2c(c1)Oc1nc(N)c(C#N)c(N)c1C2Sc1ccc(F)cc1` (stereo unspecified), the GI50 (786-0 renal) was 1.56 µM, the TGI (786-0 renal) was 3.02 µM and the GI50 (A498 renal) was 1.93 µM. The TGI (A498 renal) was 3.91 µM, the GI50 (A549 NSCLC) was 1.79 µM and the TGI (A549 NSCLC) was 3.34 µM. The GI50 (ACHN renal) was 1.5 µM, the TGI (ACHN renal) was 2.82 µM and the GI50 (BT-549 breast) was 1.07 µM. For the same compound, the TGI (BT-549 breast) was 2.31 µM, the GI50 (CAKI-1 renal) was 1.55 µM and the TGI (CAKI-1 renal) was 2.91 µM. For the same compound, the GI50 (COLO 205 colon) was 1.22 µM, the TGI (COLO 205 colon) was 2.67 µM and the GI50 (DU-145 prostate) was 1.65 µM. The TGI (DU-145 prostate) was 3.01 µM, the GI50 (EKVX NSCLC) was 0.661 µM and the TGI (EKVX NSCLC) was 2.06 µM. For the same compound, the GI50 (HCC-2998 colon) was 1.73 µM, the TGI (HCC-2998 colon) was 3.3 µM and the GI50 (HCT-116 colon) was 1.14 µM. For the same compound, the TGI (HCT-116 colon) was 2.66 µM, the GI50 (HCT-15 colon) was 0.984 µM and the TGI (HCT-15 colon) was 2.45 µM. It also gave a GI50 (HOP-62 NSCLC) of 1.83 µM, a TGI (HOP-62 NSCLC) of 3.42 µM and a GI50 (HS 578T breast) of 1.61 µM. For the same compound, the TGI (HS 578T breast) was 4.61 µM, the GI50 (HT29 colon) was 1.53 µM and the TGI (HT29 colon) was 3.32 µM. For the same compound, the GI50 (IGROV1 ovarian) was 1.05 µM, the TGI (IGROV1 ovarian) was 2.38 µM and the GI50 (K-562 leukemia) was 0.308 µM. The TGI (K-562 leukemia) was > 100 µM, the GI50 (KM12 colon) was 1.21 µM and the TGI (KM12 colon) was 2.49 µM. It also gave a GI50 (LOX IMVI melanoma) of 0.433 µM, a TGI (LOX IMVI melanoma) of 1.53 µM and a GI50 (M14 melanoma) of 1.49 µM. It also gave a TGI (M14 melanoma) of 3.01 µM, a GI50 (MALME-3M melanoma) of 1.67 µM and a TGI (MALME-3M melanoma) of 3.09 µM. The GI50 (MCF7 breast) was 1 µM, the TGI (MCF7 breast) was 2.84 µM and the GI50 (MDA-MB-435) was 1.33 µM. The TGI (MDA-MB-435) was 2.73 µM, the GI50 (MOLT-4 leukemia) was 0.315 µM and the TGI (MOLT-4 leukemia) was > 100 µM. The GI50 (NCI-H23 lung) was 1.37 µM, the TGI (NCI-H23 lung) was 2.9 µM and the GI50 (NCI-H460 lung) was 1.28 µM. The TGI (NCI-H460 lung) was 2.75 µM, the GI50 (NCI-H522 lung) was 1.8 µM and the TGI (NCI-H522 lung) was 3.31 µM. It also gave a GI50 (NCI/ADR-RES ovarian) of 2.28 µM, a TGI (NCI/ADR-RES ovarian) of 5.88 µM and a GI50 (OVCAR-4 ovarian) of 1.75 µM. The TGI (OVCAR-4 ovarian) was 3.18 µM, the GI50 (OVCAR-5 ovarian) was 1.38 µM and the TGI (OVCAR-5 ovarian) was 2.78 µM. For the same compound, the GI50 (OVCAR-8 ovarian) was 1.6 µM, the TGI (OVCAR-8 ovarian) was 3.02 µM and the GI50 (RXF 393 renal) was 1.71 µM. For the same compound, the TGI (RXF 393 renal) was 3.17 µM, the GI50 (SF-268 CNS) was 1.54 µM and the TGI (SF-268 CNS) was 2.99 µM. For the same compound, the GI50 (SF-295 CNS) was 1.7 µM, the TGI (SF-295 CNS) was 3.16 µM and the GI50 (SF-539 CNS) was 1.33 µM. For the same compound, the TGI (SF-539 CNS) was 2.62 µM, the GI50 (SK-MEL-2 melanoma) was 1.69 µM and the TGI (SK-MEL-2 melanoma) was 3.1 µM. For the same compound, the GI50 (SK-MEL-28 melanoma) was 1.52 µM, the TGI (SK-MEL-28 melanoma) was 2.89 µM and the GI50 (SK-MEL-5 melanoma) was 1.76 µM. For the same compound, the TGI (SK-MEL-5 melanoma) was 3.17 µM, the GI50 (SK-OV-3 ovarian) was 2.04 µM and the TGI (SK-OV-3 ovarian) was 3.63 µM. The GI50 (SNB-19 CNS) was 1.41 µM, the TGI (SNB-19 CNS) was 2.74 µM and the GI50 (SNB-75 CNS) was 1.49 µM. The TGI (SNB-75 CNS) was 2.82 µM, the GI50 (SR leukemia) was 0.334 µM and the TGI (SR leukemia) was > 100 µM. It also gave a GI50 (SW-620 colon) of 1.08 µM, a TGI (SW-620 colon) of 2.41 µM and a GI50 (TK-10 renal) of 2.69 µM. The TGI (TK-10 renal) was 4.21 µM, the GI50 (U251 CNS) was 1.23 µM and the TGI (U251 CNS) was 2.56 µM. For the same compound, the GI50 (UACC-257 melanoma) was 1.86 µM, the TGI (UACC-257 melanoma) was 3.33 µM and the GI50 (UACC-62 melanoma) was 1.63 µM. The TGI (UACC-62 melanoma) was 3.1 µM, the GI50 (UO-31 renal) was 1.12 µM and the TGI (UO-31 renal) was 2.33 µM.
